Literature values in patent publication US20260355183A1, “METHODS OF TREATING HEPATIC-ONLY METASTATIC UVEAL MELANOMA” (IDEAYA BIOSCIENCES, INC., priority 2023, published 2026).

Tests used:
certain PKC isototypes = conditions: background statement
[1] = test system: uveal melanoma cells harboring GNAQ mutations; conditions: by targeting PKC/ERK1/2 and PKC/NF-xB pathways; X. Wu et al., Mol. Cancer Ther. 11, 1905-1914, 2012
[2] = test system: ocular melanoma liver metastases; conditions: in vivo

Row | Compound | activity against PKC isotypes (certain PKC isototypes) | inhibition of growth of uveal melanoma cells harboring GNAQ mutations [1] | DCR [2]
1 | CN1CCN(c2nc(C3=C(c4c[nH]c5ccccc45)C(=O)NC3=O)c3ccccc3n2)CC1 [sotrastaurin] | activity against certain PKC isototypes | selectively inhibit the growth of uveal melanoma cells harboring GNAQ mutations | –
2 | N[C@@H](Cc1ccc(N(CCCl)CCCl)cc1)C(=O)O [melphalan] | – | – | 76.3%
